Data from a melting point compilation (Tetko et al.; mined from patent text by program, amines drawn as free bases though some values may be those of a salt).

SMILES	melting point [°C]
CC(=O)ON=Cc1cccc2c1C=Cc1ccccc1S2	144 to 145
CCn1ncc2c(NC)c3c(nc21)C(=NC)c1ccccc1CC3	233 to 235
CSC(=O)C(C)(C)NC(=O)c1cc2c(n(CC3CCCCC3)c1=O)CCCCCC2	196 to 198
CCn1cc(-c2ccc(O)cc2)nc1S	252
O=C(Cc1c(-c2ccccc2)c2cc3c(cc2oc1=O)C=CC3)Nc1ccc(F)cc1C(F)(F)F	217 to 218
O=C1CC(c2c(-c3ccc[nH]3)[nH]c3ccccc23)C(=O)N1 (stereo unspecified)	67 to 69
Nc1c(I)c(-c2ccccc2)nn1-c1c(Cl)cc(C(F)(F)F)cc1Cl	162 to 164
Sc1ncc2c(n1)-c1ccc(Cl)cc1C(c1ccccc1Cl)=NC2	232 to 234
Cc1ccc(SCc2ccc(OC(F)(F)F)cc2)cc1	74 to 76
CCO[C@H]1Cc2ccccc2[C@H]1Nc1nc(CC)c(-c2ccc(OC)cc2OC)nc1CC	120 to 121
OCc1ccc2cccc3c2c1-c1ccccc1-3	147 to 185
O=c1[nH]c2cccc(C3CCCNC3)c2[nH]1 (stereo unspecified)	260
O=C1C=Cc2ccc3ncccc3c2C1=O	215 to 216
FC(F)c1cc(-c2cccc(C(F)(F)F)c2)nc2c(I)cnn12	130
CCOCc1nc2c(N)nc3cc(-c4cccnc4)ccc3c2n1CC1CCCCN1S(C)(=O)=O (stereo unspecified)	152 to 154
O=C1OC(=O)c2ncc([N+](=O)[O-])cc21	85 to 91
CC(=O)Cc1cc2c(cc1C(=O)c1ccc([N+](=O)[O-])c(C)c1)OCO2	146 to 148
CS(=O)(=O)NCCCCn1c(-c2ccccc2)nc2c(N)nc3ccccc3c21	234 to 235
CCOC(=O)c1cc(-c2ccccn2)[nH]n1	103 to 105
CCNC1C(C)CN(c2c(F)c(N)c3c(=O)c(C(=O)O)cn(C4CC4)c3c2OC)CC1C (stereo unspecified)	202 to 204
CCOC(=O)c1cnc2c(cnn2CCC(C)C)c1O	65 to 70

SMILES	melting point [°C]
CC(C(=O)n1c(=O)oc2ccccc21)C(O)CCCl (stereo unspecified)	116 to 117
COC(=O)C(C(=O)OC)c1ccc([N+](=O)[O-])cc1C(=O)O	163 to 164
O=C1NC(=O)C(C2C3CCCC32)O1 (stereo unspecified)	135 to 141
CC1CCCCN1c1nc(N)nc(-c2cc(Cl)ccc2Cl)n1 (stereo unspecified)	136 to 137
O=C1CN(Cc2ccccc2)C(=S)N1	150 to 152
O=C(N[C@H]1CN2CCC1CC2)C(O)(c1ccccc1)C1CCCC1 (stereo partly specified)	69.8 to 73.3
O=C1NCCN1C1CCN(CC(O)COc2cccnc2Cl)CC1 (stereo unspecified)	163 to 166
O=c1[nH]c(N2CCOCC2)nc2c1CC(S(=O)(=O)c1ccccc1)CC2 (stereo unspecified)	> 250
CCCCCCCC(=O)CCC(=O)O	78 to 78.5
CCc1c(NC(=O)c2ccc(-c3ccc(F)cc3)cc2)ccc2cc(CN3CCCC3)cnc12	258 to 260
CC[C@H](C)[C@H](NC(=O)OCc1ccccc1)C(=O)N[C@@H](CO)Cc1c[nH]c2ccccc12	198 to 199
CCCn1c(=O)c2nc(-c3ccc(/C=C/C(=O)O)cc3)[nH]c2n(C)c1=O	> 300
Cc1nnc(Cc2ccc(NC(=O)/C=C/c3cnn(C)c3-c3ccc(F)cc3)cc2)o1	151 to 152
CC(C)(C)c1cc(-c2nn(C3(C)COC(=O)O3)c3ncccc23)cc(C(C)(C)C)c1O (stereo unspecified)	190 to 191
CC(CC1OCCc2ccccc21)NCC(O)c1ccc(O)cc1 (stereo unspecified)	83 to 105
CC(C)OC(=O)C(=C1SC=CS1)S(=O)(=O)C(C)C	124 to 125
COc1ccc2c(c1)C1=C[C@@H](C(=O)NC(C)(C)C)CN(C)[C@@H]1CO2 (relative stereo)	188 to 189
Cc1noc(NC(=O)N2CCN(c3nc(-c4cccc(Cl)c4Cl)cs3)CC2)c1C	175 to 176
COc1ccc(-c2cc(=O)n(C)c(=O)[nH]2)cc1OC	262 to 263
CCNC(=O)c1cc(C(=O)O)cc(C(=O)NCC)n1	278 to 280
